From publication PMC8772433 (Nature structural & molecular biology, 2021)

Target: SARS-CoV-2 ORF3a (3a), dimer (Severe acute respiratory syndrome coronavirus 2, UniProt P0DTC3)
Assay: patch-clamp current recording, excised inside-out patches of 3a-proteoliposomes
Type: biochemical
Settings: symmetric 150 mM KCl, pH 7.2, -80 mV, room temperature; soy PC proteoliposomes; flickery block at negative potentials

SARS-CoV-2 ORF3a (3a), dimer, sequence (P0DTC3 whole entry): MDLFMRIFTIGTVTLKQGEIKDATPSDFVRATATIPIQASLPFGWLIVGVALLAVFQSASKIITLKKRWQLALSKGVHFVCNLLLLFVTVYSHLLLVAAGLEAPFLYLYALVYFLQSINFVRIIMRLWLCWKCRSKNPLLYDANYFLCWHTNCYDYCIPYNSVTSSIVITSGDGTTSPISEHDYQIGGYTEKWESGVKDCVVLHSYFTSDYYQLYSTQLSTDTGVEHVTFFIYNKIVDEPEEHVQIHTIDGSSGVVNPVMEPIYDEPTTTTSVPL

## Ruthenium Red
  IC50: 90 ± 10 µM
